Laboratory results published in patent publication US11345710B2, “Imidazo[1,2-b]pyrimido[4,5-d]pyridazin-5(6H)-ones and the use thereof” (IMPACT THERAPEUTICS (SHANGHAI), INC, priority 2017, dated 2022).
pIC50: −log10 of the molar value. Read-outs that look alike come from different tables or passages of the source.

Experiments:
LoVo cells = test: MTT based cell viability assay on LoVo cells; settings: read-out: IC50, growth inhibition on LoVo cells
Method: Determination of the Cell Growth Inhibiting Activity of 6-(2,6-dichlorophenyl)-2-((4-(4-methylpiperazin-1-yl)phenyl)amino)imidazo[1,2-b]pyrimido[4,5-d]pyridazin-5(6H)-one and Analogs Thereof on LoVo Cells Using a MTT Based Cell Viability Assay
The thawed LoVo cells were cultured and passaged to the third generation, and the growth state was good and the confluence was about 90%, which began to be used in the experiment. The LoVo cells were digested with trypsin, centrifuged at 800 rpm for 5 min, the supernatant was discarded, resuspended with fresh culture medium, and counted. 6000 Cells are seeded to each well of a 96-well cell culture plate. The cells were incubated at 37° C. in a 5% CO2 cell culture incubator overnight. The tested sample (including the tested compound and the reference compound AZD1775) was diluted continuously to 8 concentrations (the last concentration was negative control of DMSO) with a 1:3 and 1:10 dilution in DMSO respectively: 10 μM, 3.3 μM, 1 μM, 0.33 μM, 0.1 μM, 0.033 μM, 0.01 μM, 0 μM (the final concentration of DMSO was 1%). 5 μL of each concentration was added to 120 μL of culture medium (25 times diluted), and the mixture was shaken well. The overnight cells were taken and the culture medium was removed, 195 μL of fresh culture medium was added to each well, and 5 μL of diluted culture medium containing the corresponding concentration of the tested sample was added respectively, and the culture plate was then placed in the 5% CO2 cell culture incubator at 37° C. for 3 d. After removing the original solution and adding 100 μL of fresh serum-free DMEM culture medium containing MTT (0.5 mg/mL) per well, the culture was continued. The original solution was removed after 4 hrs and 100 μl DMSO was added to each well. The 96-well cell culture plates were shaken away from light for 10 min and readed in a multifunctional reader at 552/630/690 nm to give absorption values (OD values). The data were analyzed using a graphic software (Graph Pad Prism 5.0) and the inhibitory activity of the compound on cell proliferation was plotted in terms of cell survival and compound concentration. The IC50 values were fitted by the S-shaped dose-response curve equation as follows: Y=100/(1+10^(Log C−Log IC50)), where C was the concentration of testing compounds.

NCI-H1299 cells = test: MTT based cell viability assay on NCI-H1299 cells; settings: read-out: IC50, growth inhibition on NCI-H1299 cells
Method: Determination of the Cell Growth Inhibiting Activity of 6-(2,6-dichlorophenyl)-2-((4-(4-methylpiperazin-1-yl)phenyl)amino)imidazo[1,2-b]pyrimido[4,5-d]pyridazin-5(6H)-one and Analogs on NCI-H1299 Cells Using a MTT Based Cell Viability Assay
The thawed NCI-H1299 cells were cultured and passaged to the third generation, and the growth state was good and the confluence was about 90%, which began to be used in the experiment. The NCI-H1299 cells were digested with trypsin, centrifuged at 800 rpm for 5 min, the supernatant was discarded, resuspended with fresh culture medium, and counted. 1000 Cells are seeded to each well of a 96-well plate. The cells are incubated at 37° C. in a 5% CO2 cell culture incubator overnight. The tested sample (including the tested compound and the reference compound AZD1775) was diluted continuously to 8 concentrations (the last concentration was negative control of DMSO) with a 1:3 and 1:10 dilution in DMSO respectively: 10 μM, 3.3 μM, 1 μM, 0.33 μM, 0.1 μM, 0.033 μM, 0.01 μM, 0 μM (the final concentration of DMSO was 1%). 5 μL of each concentration was added to 120 μL of culture medium (25 times diluted), and the mixture was shaken well. The overnight cells were taken and the culture medium was removed, 195 μL of fresh culture medium was added to each well, and 5 μL of diluted culture medium containing the corresponding concentration of the tested sample was added respectively, and the culture plate was then placed in the 5% CO2 cell culture incubator at 37° C. for 3 d. After removing the original solution and adding 100 μL of fresh serum-free DMEM culture medium containing MTT (0.5 mg/mL) per well, the culture was continued. The original solution was removed after 4 hrs and 100 μl DMSO was added to each well. The 96-well cell culture plates were shaken away from light for 10 min and readed in a multifunctional reader at 552/630/690 nm to give absorption values (OD values). The data were analyzed using a graphic software (Graph Pad Prism 5.0) and the inhibitory activity of the compound on cell proliferation was plotted in terms of cell survival and compound concentration. The IC50 values were fitted by the S-shaped dose-response curve equation as follows: Y=100/(1+10^(Log C−Log IC50)), where C was the concentration of testing compounds.

Wee1 kinase (h) = Wee1 kinase (h) (Homo sapiens, UniProt P30291); test: Wee1 kinase (h) detection method, [γ-33P]-ATP filter assay; assay type: biochemical; settings: 10 μM ATP, 40 minutes at room temperature
Method: Wee1 kinase (h) was incubated with 20 mM Tris/HCl pH 8.5, 0.2 mM EDTA, 500 μM […], 10 mM MgAcetate and 10 μM [γ-^33P]-ATP. Then the stock solution of all compounds under test with 50× concentration in 100% DMSO was added to make the final concentration of 1/0.1/0.01 μM, and then mixed the mixture well. The reaction was initiated by the addition of the Mg/ATP mix. After incubation for 40 minutes at room temperature, the reaction was stopped by the addition of phosphoric acid to a concentration of 0.5%. 10 μL of the reaction liquor was then spotted onto a P30 filtermat and washed four times in 0.425% phosphoric acid and once in methanol prior to drying and scintillation counting. Each compound sample was duplicated in duplicate. The negative control was lack of all the components of Wee1 enzyme, and the positive was addition of 30% phosphoric acid to terminate the reaction. The Wee1 inhibitor AZD1775 was detected at 10/0.01 μM at the same experiment condition.

[1] = Homo sapiens, 72 h, LoVo cells, 3 d, MTT
[2] = Homo sapiens, 72 h, NCI-H1299 cells, 3 d, MTT

Wee1 kinase (h), sequence (P30291 whole entry): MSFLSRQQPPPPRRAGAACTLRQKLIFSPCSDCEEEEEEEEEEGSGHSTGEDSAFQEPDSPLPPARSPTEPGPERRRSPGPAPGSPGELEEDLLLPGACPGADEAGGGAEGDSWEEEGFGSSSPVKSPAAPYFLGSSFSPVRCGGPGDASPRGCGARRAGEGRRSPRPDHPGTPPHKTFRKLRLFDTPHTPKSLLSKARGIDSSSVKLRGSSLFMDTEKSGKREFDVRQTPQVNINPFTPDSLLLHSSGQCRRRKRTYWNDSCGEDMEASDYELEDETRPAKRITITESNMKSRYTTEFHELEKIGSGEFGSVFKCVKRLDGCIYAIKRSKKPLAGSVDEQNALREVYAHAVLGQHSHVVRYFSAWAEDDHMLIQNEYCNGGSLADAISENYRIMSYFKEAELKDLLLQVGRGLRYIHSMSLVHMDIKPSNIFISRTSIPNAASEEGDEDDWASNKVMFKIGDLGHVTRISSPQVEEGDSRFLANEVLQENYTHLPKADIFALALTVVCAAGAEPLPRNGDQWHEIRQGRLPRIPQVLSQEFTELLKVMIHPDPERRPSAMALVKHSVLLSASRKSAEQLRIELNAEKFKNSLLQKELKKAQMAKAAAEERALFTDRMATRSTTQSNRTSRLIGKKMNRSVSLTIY

Structure (SMILES)	pIC50 (LoVo cells; Homo sapiens, LoVo, 72 h)	pIC50 (NCI-H1299 cells; Homo sapiens, NCI-H1299, 72 h)	Inh. (%) of Wee1 kinase (Wee1 kinase (h); C 1 μm) [%]	pIC50 (LoVo cells; [1])	pIC50 (NCI-H1299 cells; [2])	also measured
C[C@@H]1CN(c2ccc(Nc3ncc4c(=O)n(-c5c(Cl)cccc5Cl)n5ccnc5c4n3)cc2)C[C@H](C)N1C [Example 30, 6-(2,6-dichlorophenyl)-2-((4-((3S,5R)-3,4,5-trimethylpiperazin-1-yl)phenyl)amino)imidazo[1,2-b]pyrimido[4,5-d]pyridazin-5(6H)-one]	6.11	6.29				
CN1CCN(c2ccc(Nc3ncc4c(=O)n(-c5c(Cl)cccc5Br)n5ccnc5c4n3)cc2Cl)CC1 [Example 47, 6-(2-bromo-6-chlorophenyl)-2-((3-chloro-4-(4-methylpiperazin-1-yl)phenyl)amino)imidazo[1,2-b]pyrimido[4,5-d]pyridazin-5(6H)-one]			96	6.43	6.25	
CN(C)C1CCN(c2ccc(Nc3ncc4c(=O)n(-c5c(Cl)cccc5Br)n5ccnc5c4n3)cc2Cl)CC1 [Example 48, 6-(2-bromo-6-chlorophenyl)-2-((3-chloro-4-(4-(dimethylamino)piperidin-1-yl)phenyl)amino)imidazo[1,2-b]pyrimido[4,5-d]pyridazin-5(6H)-one]			93	6.64	6.55	Inh. (%) of Wee1 kinase (Wee1 kinase (h); C 0.01 μm): 23%
CN1CCN(c2ccc(Nc3ncc4c(=O)n(-c5c(Cl)cccc5Cl)n5ccnc5c4n3)cc2Cl)CC1 [Example 27, 6-(2,6-dichlorophenyl)-2-((3-chloro-4-(4-methylpiperazin-1-yl)phenyl)amino)imidazo[1,2-b]pyrimido[4,5-d]pyridazin-5(6H)-one]	6.43	6.33	97			Inh. (%) of Wee1 kinase (Wee1 kinase (h); C 0.01 μm): 17%; Inh. (%) of Wee1 kinase (Wee1 kinase (h); C 0.1 μm): 76%
Cc1cc(Nc2ncc3c(=O)n(-c4c(Cl)cccc4Cl)n4ccnc4c3n2)cc2c1C(C)(C)CN(C)C2 [Example 43, 6-(2,6-dichlorophenyl)-2-((2,4,4,4,5-tetramethyl-1,2,3,4-tetrahydroisoquinolin-7-yl)amino)imidazo[1,2-b]pyrimido[4,5-d]pyridazin-5(6H)-one]						Inh. (%) of Wee1 kinase (Wee1 kinase (h); C 0.01 μm): 9%; pIC50 (LoVo cells; LoVo cells, 3 d, MTT): 6.32; pIC50 (NCI-H1299 cells; NCI-H1299 cells, 3 d, MTT): 6.76
C[C@@H]1CN(c2ccc(Nc3ncc4c(=O)n(-c5c(Cl)cccc5Cl)n5ccnc5c4n3)cc2Cl)C[C@H](C)N1C [Example 32, 6-(2,6-dichlorophenyl)-2-((3-chloro-4-((3S,5R)-3,4,5-trimethylpiperazin-1-yl)phenyl)amino)imidazo[1,2-b]pyrimido[4,5-d]pyridazin-5(6H)-one]	6.17	6.29				
CN1Cc2cc(Nc3ncc4c(=O)n(-c5c(F)cccc5Cl)n5ccnc5c4n3)ccc2C(C)(C)C1 [Example 12, 6-(2-chloro-6-fluorophenyl)-2-((2,4,4-trimethyl-1,2,3,4-tetrahydroisoquinolin-7-yl)amino)imidazo[1,2-b]pyrimido[4,5-d]pyridazin-5(6H)-one]			96	6.09	6.35	
CN1CCN(c2ccc(Nc3ncc4c(=O)n(-c5c(F)cccc5Cl)n5ccnc5c4n3)cc2Cl)CC1 [Example 21, 6-(2-chloro-6-fluorophenyl)-2-((3-chloro-4-(4-methylpiperazin-1-yl)phenyl)amino)imidazo[1,2-b]pyrimido[4,5-d]pyridazin-5(6H)-one]			95	6.59	6.29	
Cc1cc(Nc2ncc3c(=O)n(-c4c(F)cccc4F)n4ccnc4c3n2)ccc1N1CCN(C)CC1 [Example 2, 6-(2,6-difluorophenyl)-2-((3-methyl-4-(4-methylpiperazin-1-yl)phenyl)amino)imidazo[1,2-b]pyrimido[4,5-d]pyridazin-5(6H)-one]			93	6.39	6.19	
Cc1cc(Nc2ncc3c(=O)n(-c4c(F)cccc4Cl)n4ccnc4c3n2)ccc1N1C[C@@H](C)N(C)[C@@H](C)C1 [Example 24, 6-(2-chloro-6-fluorophenyl)-2-((3-methyl-4-((3S,5R)-3,4,5-trimethylpiperazin-1-yl)phenyl)amino)imidazo[1,2-b]pyrimido[4,5-d]pyridazin-5(6H)-one]				6.45	6.48	
CCc1cn2c(n1)c1nc(Nc3ccc(N4CCN(C)CC4)c(C)c3)ncc1c(=O)n2-c1c(Cl)cccc1Cl [Example 60, 6-(2,6-dichlorophenyl)-2-((3-methyl-4-(4-methylpiperazin-1-yl)phenyl)amino)-9-ethylimidazo[1,2-b]pyrimido[4,5-d]pyridazin-5(6H)-one]				6.49	6.79	
Cc1cc(Nc2ncc3c(=O)n(-c4c(Cl)cccc4Cl)n4ccnc4c3n2)ccc1N1C[C@@H](C)N(C)[C@@H](C)C1 [Example 33, 6-(2,6-dichlorophenyl)-2-((3-methyl-4-((3S,5R)-3,4,5-trimethylpiperazin-1-yl)phenyl)amino)imidazo[1,2-b]pyrimido[4,5-d]pyridazin-5(6H)-one]	6.40	6.63				
Cc1cc(Nc2ncc3c(=O)n(-c4c(Cl)cccc4Cl)n4ccnc4c3n2)ccc1C1CCN(C)CC1 [Example 41, 6-(2,6-dichlorophenyl)-2-((3-methyl-4-(1-methylpiperidin-4-yl)phenyl)amino)imidazo[1,2-b]pyrimido[4,5-d]pyridazin-5(6H)-one]	6.67	6.73				
C[C@@H]1CN(c2ccc(Nc3ncc4c(=O)n(-c5c(Cl)cccc5Cl)n5ccnc5c4n3)cc2F)C[C@H](C)N1C [Example 31, 6-(2,6-dichlorophenyl)-2-((3-fluoro-4-((3S,5R)-3,4,5-trimethylpiperazin-1-yl)phenyl)amino)imidazo[1,2-b]pyrimido[4,5-d]pyridazin-5(6H)-one]	6.09	6.17				
